Assay [1] addresses T. vaginalis Tv20S proteasome β5 subunit (Trichomonas vaginalis, UniProt A2DD57+A2F716). The assay can be described thus: biochemical. The class given is biochemical. Particulars: recombinant Tv20S, mean ± SD of three experiments; read-out: Tv20S proteasome inhibition of β5 subunit (IC50). Here is the method:
(§1) The T. vaginalis proteasome was expressed in recombinant form as previously described ([27]). Briefly, Spodoptera frugiperda cells were co-infected with three baculovirus vectors carrying the T. vaginalis genes for the 7 α-subunits, 7 β-subunits, and the Ump-1 chaperone, respectively. The resulting proteasome complex was purified from cell lysates via streptavidin column and size exclusion chromatography and stored at −80°C. Purified human c20S proteasome and recombinant human proteasome activator PA28α ([21]) were obtained from Bio-Techne and stored at −80°C. Dilutions of the test agents were transferred to 384-well plates (Greiner Bio-One) in triplicate wells using an Echo 650 Acoustic Liquid Handler (Beckman Coulter). Six replicate plates were prepared for each compound for testing with three T. vaginalis-optimized substrates and three human-optimized substrates. After dispensing, plates were sealed and stored at −20°C. The following fluorescent substrates and final substrate concentrations were used to assay subunit activities of the T. vaginalis proteasome (Tv20S) ([28]) or the human constitutive proteasome (c20S) ([19], [52]): Ac-RYFD-amc (Genscript) at 100 µM for Tv20S β1 subunit, Ac-FRSR-amc (Genscript) at 20 µM for Tv20S β2 subunit, Ac-GWYL-amc (Genscript) at 20 µM for Tv20S β5 subunit, z-LLE-amc (R&D Systems) at 80 µM for c20S β1 subunit, z-VLR-amc (AdipoGen Life Sciences) at 30 µM for c20S β2 subunit, and suc-LLVY-amc (R&D Systems) at 65 µM for c20S β5 subunit. Substrates and proteasomes were diluted in an assay buffer consisting of HEPES pH 7.5 and 1 mM DTT. For the human proteasome assays, 2 nM c20S was incubated at room temperature with 200 nM PA28α for 1 h to activate the complex prior to addition to the 384-well plates containing the substrate-inhibitor mixtures. […] Both proteasomes were added to the wells at a 1 nM final assay concentration. Fluorescence was measured over 4 h at 360 nm excitation and 460 nm emission on a Biotek Synergy HTX plate reader.

Assay [2] concerns the target T1, Human c20S proteasome β5 subunit (Homo sapiens, UniProt P20618+P28074).
T1 construct: purchased Bio-Techne
The assay can be described thus: In vitro proteasome assay, suc-LLVY-amc substrate. Particulars: purified human c20S with PA28α, mean ± SD. The class given is biochemical. How it is done:
as §1

Assay [3] concerns the target T2, Human c20S proteasome β2 subunit (Homo sapiens, UniProt P49720+Q99436).
T2 construct: purchased Bio-Techne
The assay can be described thus: In vitro proteasome assay, z-VLR-amc substrate. The assay is classed as biochemical. Here is the method:
as §1

Assay [4] relates to T. vaginalis strain F1623. The assay can be described thus: 24 h growth and survival assay (ATP luminescence, GI50). The class given is cell-based, Trichomonas vaginalis. Particulars: T. vaginalis F1623 vs human HeLa cells. How it is done:
The following T. vaginalis strains were used: F1623 ([50]), G3 (ATCC PRA-98), and LA1 ([25]). […] Drug susceptibility assays were performed as described previously ([23]) with several minor modifications. Briefly, 10 mM stocks of the test compounds in DMSO were serially diluted 1:3 using an Echo 650 Acoustic Liquid Handler (Beckman Coulter). Subsequently, trophozoites (5 × 10^3/well) in TYM modified media were added to the wells in 384-well plates, and cultures were incubated for 24 h at 37°C under anaerobic conditions (AnaeroPack-Anaero System; Remel). For testing in mammalian cells, the following cell lines were used: Human cervical cancer cells HeLa (ATCC CCL-2), non-transformed mouse fibroblast cell line 3T3-L1 (ATCC CL-173), normal monkey kidney epithelial cell line Vero (ATCC CCL-81), and human B lymphoma cells Raji (ATCC CCL-86). Test compounds were serially diluted (1:3) and added to mammalian cell cultures grown in 384-well plates, and cultures were incubated for 48 h at 37°C in 5% CO2, 95% air. Growth and viability of T. vaginalis and mammalian cells were determined with an ATP assay by adding the BacTiter-Glo Microbial Cell Viability Assay reagent (Promega) directly to the wells and measuring ATP-dependent luminescence in a microplate reader. […] Experiments were repeated at least three times, and the mean and SEM of the pGI50 values were calculated.

For assay [5], the target named is T. vaginalis Tv20S proteasome β1 subunit (Trichomonas vaginalis, UniProt A2E7Z2). Put plainly: In vitro proteasome assay, Ac-RYFD-amc substrate. The assay is classed as biochemical. Conditions: recombinant Tv20S, mean ± SD of three experiments. How it is done:
as §1

Assay [6] has as its target T3, Human c20S proteasome β1 subunit (Homo sapiens, UniProt P28072+Q99436).
T3 construct: purchased Bio-Techne
The assay can be described thus: In vitro proteasome assay, z-LLE-amc substrate. Particulars: purified human c20S with PA28α, mean ± SD. The assay is classed as biochemical. Here is the method:
as §1

The test system of assay [7] is T. vaginalis Tv20S proteasome β2 subunit. Put plainly: In vitro proteasome assay, Ac-FRSR-amc substrate. The class given is biochemical, Trichomonas vaginalis. Particulars: recombinant Tv20S, mean ± SD of three experiments. How it is done: as §1
Assay [8] has as its system β5 proteasome subunit in live T. vaginalis F1623 (compared to human HeLa cells). The assay can be described thus: Fluorescence gel assay of proteasome subunit targeting in live cells. The class given is cell-based, Trichomonas vaginalis. Conditions: 3 h incubation, gel densitometry, T. vaginalis F1623 vs HeLa. Here is the method: T. vaginalis F1623 and human HeLa cells were incubated for 3 h with proteasome inhibitors at a range of concentrations or with solvent as a control. Cells were lysed by three consecutive freeze/thaw cycles in a buffer of 50 mM HEPES, pH 7.5, 10 µM E64, 100 µM AEBSF, 10 µM RR11a, 1 µM Pepstatin, and 1 mM DTT. Protein concentrations were measured with the Pierce BCA assay (Thermo Scientific) and adjusted to 5 mg/mL. Samples were incubated with 2 µM Me4BodipyFL-Ahx3Leu3VS ([53]) at 2.5 mg/mL protein concentration for 24 h at 37°C. […] Band intensities were quantified using ImageJ (NIH). Each peak corresponding to a protein band was selected, and the area under the curve was determined after subtraction of the intensity in an adjacent area outside of the respective band. For closely spaced bands, the midpoint between the peaks of two bands was used to separate the areas. Band intensities were normalized to the respective controls, not incubated with inhibitors.

For assay [9], the system named is ubiquitin-conjugated proteins in T. vaginalis F1623. Put plainly: Immunoblot analysis of ubiquitin labeling. The assay is classed as cell-based, Trichomonas vaginalis. Conditions: 3 h treatment, 30× GI50. Here is the method:
Protein concentrations were measured using the Pierce BCA assay (Thermo Scientific) and adjusted to 10 mg/mL. Proteins were fractionated on SDS-PAGE, transferred onto a nitrocellulose membrane (Bio-Rad), which was blocked with 5% non-fat dry milk in TBST buffer (20 mM Tris base, 150 mM NaCl, 0.05% Tween 20, pH adjusted to 7.6 with HCl) for 1 h and probed with primary anti-ubiquitin antibody (Proteintech, 10201-2-AP) at a 1:2,000 dilution, followed by incubation with anti-rabbit horseradish peroxidase (HRP)-conjugated IgG (Jackson laboratory) at a 1:5,000 dilution. HRP labeling was visualized by chemiluminescence (Immobilon, Millipore).
Background: In western blotting, separated proteins are transferred to a membrane and probed.

Setting [10] is: read-out: Human c20S proteasome inhibition of β5 subunit (IC50).
Where [11] appears, read: purified human c20S with PA28α, mean ± SD.

Structures are written as SMILES. Like-named read-outs stand apart in the source and are kept apart here.

T. vaginalis Tv20S proteasome β5 subunit, sequence (A2DD57 entry or part of it): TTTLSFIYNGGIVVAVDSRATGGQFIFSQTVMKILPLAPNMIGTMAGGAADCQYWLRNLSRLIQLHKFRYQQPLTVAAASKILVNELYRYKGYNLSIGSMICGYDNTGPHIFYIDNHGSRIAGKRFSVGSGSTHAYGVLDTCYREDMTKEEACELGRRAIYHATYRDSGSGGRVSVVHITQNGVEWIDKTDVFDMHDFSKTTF
T. vaginalis Tv20S proteasome β5 subunit, sequence (A2F716 entry or part of it): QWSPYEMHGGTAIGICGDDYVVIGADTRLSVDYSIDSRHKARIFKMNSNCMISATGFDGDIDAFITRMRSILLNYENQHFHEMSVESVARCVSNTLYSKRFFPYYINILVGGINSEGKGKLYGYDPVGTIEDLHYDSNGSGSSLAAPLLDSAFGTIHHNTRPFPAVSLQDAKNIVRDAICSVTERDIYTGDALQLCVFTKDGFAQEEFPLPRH
T. vaginalis Tv20S proteasome β1 subunit, sequence (A2E7Z2 entry or part of it): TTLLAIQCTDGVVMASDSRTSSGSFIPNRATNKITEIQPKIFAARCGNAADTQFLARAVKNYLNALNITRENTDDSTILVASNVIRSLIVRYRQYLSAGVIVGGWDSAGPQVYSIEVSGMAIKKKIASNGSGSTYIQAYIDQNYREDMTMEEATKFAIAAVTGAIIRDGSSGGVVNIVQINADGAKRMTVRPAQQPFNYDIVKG

For the compound `COc1ccc(C[C@H](NC(=O)[C@H](C)NC(=O)C2=C(C)c3ccccc3C2)C(=O)N[C@@H](Cc2ccc(-c3ccccc3)cc2)C(=O)[C@@]2(C)CO2)cc1` [compound 20], the 50% inhibitory concentration (IC50) in [1] was determined as 44.1 ± 6.71 nM; in assay [2] (setting [10]), 39.4 ± 4.76 nM. In addition, the “Human c20S proteasome inhibition of β2 subunit (IC50)” value in assay [3] (setting [11]) is “No inhibition”. In addition, the “SI (ratio of GI50 in HeLa cells over GI50 in T. vaginalis)” value in assay [4] worked out at 16.2. For the same compound, in [5], the “Tv20S proteasome inhibition of β1 subunit (IC50)” value was “Activation”. In addition, the “Human c20S proteasome inhibition of β1 subunit (IC50)” value in assay [6] is on record as “No inhibition”. In addition, the “Tv20S proteasome inhibition of β2 subunit (IC50)” value in assay [7] is “No inhibition”.

Regarding `CCCCCC(=O)NC(CC(=O)NC(CCCC)C(=O)NC(Cc1ccccc1)C(=O)C1(C)CO1)CC(=O)OC(C)(C)C` (stereo not shown) [compound 8], the IC50 in assay [1] came out at 43.7 ± 12.3 nM; in [2] (setting [10]), 4100 nM. Moreover, the “β5 inactivated in T. vaginalis at lower concentrations compared to human cells” value in [8] is listed as 22 fold. Also, in assay [3] (setting [11]), the “Human c20S proteasome inhibition of β2 subunit (IC50)” value was “No inhibition”. In assay [4], the “SI (ratio of GI50 in HeLa cells over GI50 in T. vaginalis)” value is listed as 218.8. Further, in assay [5], the “Tv20S proteasome inhibition of β1 subunit (IC50)” value is on record as “Activation”. The “Human c20S proteasome inhibition of β1 subunit (IC50)” value in assay [6] was “No inhibition”. The “abundance of ubiquitin-labeled proteins” value in [9] was “accumulation of ubiquitinated proteins”. Also, the “Tv20S proteasome inhibition of β2 subunit (IC50)” value in assay [7] was “No inhibition”.

For the compound `COc1ccc(C[C@H](NC(=O)[C@H](C)NC(=O)C2=C(C)c3ccccc3C2)C(=O)N[C@@H](Cc2ccccc2)C(=O)[C@@]2(C)CO2)cc1` [compound 4], the IC50 in [1] worked out at 8.21 ± 1.16 nM; in [2] (setting [10]), 11 ± 1.12 nM; in assay [3] (purified human c20S with PA28α, mean ± SD, read-out: Human c20S proteasome inhibition of β2 subunit (IC50)) it was 1690 ± 410 nM; in assay [6] (read-out: Human c20S proteasome inhibition of β1 subunit (IC50)), 19700 ± 8580 nM. The “SI (ratio of GI50 in HeLa cells over GI50 in T. vaginalis)” value in assay [4] is reported as 21.4. In addition, the “Tv20S proteasome inhibition of β1 subunit (IC50)” value in assay [5] was “Activation”. Further, the “Tv20S proteasome inhibition of β2 subunit (IC50)” value in [7] is given as “No inhibition”.

Consider `COc1ccc(CC(NC(=O)C(C)NC(=O)OCc2ccccc2)C(=O)NC(Cc2ccccc2)C(=O)C2(C)CO2)cc1` (stereo not shown) [compound 12], for which the 50% inhibitory concentration (IC50) in assay [1] is 20.6 ± 5.39 nM; in assay [2] (setting [10]) it was 379 ± 61.2 nM. Besides, in assay [8], the “β5 inactivated in T. vaginalis at lower concentrations compared to human cells” value is on record as 12 fold. In addition, the “Human c20S proteasome inhibition of β2 subunit (IC50)” value in assay [3] (setting [11]) is reported as “No inhibition”. The “SI (ratio of GI50 in HeLa cells over GI50 in T. vaginalis)” value in [4] came out at 63.1. Besides, the “Tv20S proteasome inhibition of β1 subunit (IC50)” value in assay [5] is “Activation”. Besides, the “Human c20S proteasome inhibition of β1 subunit (IC50)” value in assay [6] is recorded as “No inhibition”. Further, the “abundance of ubiquitin-labeled proteins” value in assay [9] was “accumulation of ubiquitinated proteins”. For the same compound, the “Tv20S proteasome inhibition of β2 subunit (IC50)” value in assay [7] is recorded as “No inhibition”.

On to `COc1ccc(CC(NC(=O)C(C)NC(=O)CN2CCOCC2)C(=O)NC(Cc2ccc(-c3ccccc3)cc2)C(=O)C2(C)CO2)cc1` (stereo not shown) [compound 3], for which the 50% inhibitory concentration (IC50) in assay [1] amounted to 12 ± 1.94 nM; in [2] (Human c20S proteasome inhibition of β5 subunit (IC50)), 18.1 ± 3.26 nM; in [3] it was 271 ± 26.4 nM. The “SI (ratio of GI50 in HeLa cells over GI50 in T. vaginalis)” value in assay [4] came to 36.3. Also, the “Tv20S proteasome inhibition of β1 subunit (IC50)” value in [5] is “Activation”. Moreover, in [6], the “Human c20S proteasome inhibition of β1 subunit (IC50)” value was “No inhibition”. The “Tv20S proteasome inhibition of β2 subunit (IC50)” value in assay [7] is listed as “No inhibition”.

As to `COc1ccc(C[C@H](NC(=O)[C@H](C)NC(=O)C2=C(C)c3ccccc3C2)C(=O)N[C@@H](Cc2ccccc2)C(=O)[C@]2(C)CO2)cc1` [compound 22], the concentration for half-maximal inhibition (IC50) was found to be 60.5 ± 8.1 nM in assay [1] and 84.8 ± 20.2 nM in assay [2] (setting [10]). The “Human c20S proteasome inhibition of β2 subunit (IC50)” value in assay [3] (setting [11]) is “No inhibition”. Moreover, the “SI (ratio of GI50 in HeLa cells over GI50 in T. vaginalis)” value in assay [4] turned out to be 16.6. Moreover, the “Tv20S proteasome inhibition of β1 subunit (IC50)” value in assay [5] is “Activation”. Further, in assay [6], the “Human c20S proteasome inhibition of β1 subunit (IC50)” value is “No inhibition”. In addition, in assay [7], the “Tv20S proteasome inhibition of β2 subunit (IC50)” value was “No inhibition”.

What is called IC50 is the concentration at which inhibition is half-maximal.

For the origin of these results see article PMC12691669, “Inhibitors of the 20S proteasome β5 subunit as potent and selective agents against Trichomonas vaginalis” (Antimicrobial Agents and Chemotherapy, 2025).
